ChEMBL document CHEMBL4813950, “Comparing the efficacy and selectivity of Ck2 inhibitors. A phosphoproteomics approach” (Eur J Med Chem, 2021)

What was measured:
Type in all cases: cell-based
[1] = target: Eukaryotic translation initiation factor 5B (Mus musculus) (UniProt Q05D44); assay: Inhibition of eukaryotic translation initiation factor 5B in mouse C2C12 cells assessed as reduction in phospho-sites occupancy at 4 uM after 5 hrs by SILAC based LC-MS/MS analysis relative to control
[2] = target: UPF0690 protein C1orf52 homolog (Mus musculus) (UniProt Q9CWU4); assay: Inhibition of UPF0690 protein C1orf52 homolog in mouse C2C12 cells assessed as reduction in phospho-sites occupancy at 4 uM after 5 hrs by SILAC based LC-MS/MS analysis relative to control
[3] = target: WD repeat and HMG-box DNA-binding protein 1 (Mus musculus) (UniProt P59328); assay: Inhibition of Wdhd1 in mouse C2C12 cells assessed as reduction in phospho-sites occupancy at 4 uM after 5 hrs by SILAC based LC-MS/MS analysis relative to control
[4] = target: Autophagy-related protein 9A (Mus musculus) (UniProt Q68FE2); assay: Inhibition of Atg9a in mouse C2C12 cells assessed as reduction in phospho-sites occupancy at 4 uM after 5 hrs by SILAC based LC-MS/MS analysis relative to control
[5] = target: DNA replication licensing factor MCM2 (Mus musculus) (UniProt P97310); assay: Inhibition of Mcm2 in mouse C2C12 cells assessed as reduction in phospho-sites occupancy at 4 uM after 5 hrs by SILAC based LC-MS/MS analysis relative to control
[6] = target: Coiled-coil domain-containing protein 43 (Mus musculus) (UniProt Q9CR29); assay: Inhibition of Ccdc43 in mouse C2C12 cells assessed as reduction in phospho-sites occupancy at 4 uM after 5 hrs by SILAC based LC-MS/MS analysis relative to control
[7] = target: Charged multivesicular body protein 3 (Mus musculus) (UniProt Q9CQ10); assay: Inhibition of Chmp3 in mouse C2C12 cells assessed as reduction in phospho-sites occupancy at 4 uM after 5 hrs by SILAC based LC-MS/MS analysis relative to control
[8] = target: Desmoyokin (Mus musculus) (UniProt Q61484); assay: Inhibition of AHNAK in mouse C2C12 cells assessed as reduction in phospho-sites occupancy at 4 uM after 5 hrs by SILAC based LC-MS/MS analysis relative to control
[9] = target: La-related protein 1 (Mus musculus) (UniProt Q6ZQ58); assay: Inhibition of Larp1 in mouse C2C12 cells assessed as reduction in phospho-sites occupancy at 4 uM after 5 hrs by SILAC based LC-MS/MS analysis relative to control
[10] = target: Pleckstrin homology-like domain family B member 1 (Mus musculus) (UniProt Q6PDH0); assay: Inhibition of Phldb1 in mouse C2C12 cells assessed as reduction in phospho-sites occupancy at 4 uM after 5 hrs by SILAC based LC-MS/MS analysis relative to control

Sequence of DNA replication licensing factor MCM2 (Mus musculus) (P97310 whole entry, the tested form may be a part): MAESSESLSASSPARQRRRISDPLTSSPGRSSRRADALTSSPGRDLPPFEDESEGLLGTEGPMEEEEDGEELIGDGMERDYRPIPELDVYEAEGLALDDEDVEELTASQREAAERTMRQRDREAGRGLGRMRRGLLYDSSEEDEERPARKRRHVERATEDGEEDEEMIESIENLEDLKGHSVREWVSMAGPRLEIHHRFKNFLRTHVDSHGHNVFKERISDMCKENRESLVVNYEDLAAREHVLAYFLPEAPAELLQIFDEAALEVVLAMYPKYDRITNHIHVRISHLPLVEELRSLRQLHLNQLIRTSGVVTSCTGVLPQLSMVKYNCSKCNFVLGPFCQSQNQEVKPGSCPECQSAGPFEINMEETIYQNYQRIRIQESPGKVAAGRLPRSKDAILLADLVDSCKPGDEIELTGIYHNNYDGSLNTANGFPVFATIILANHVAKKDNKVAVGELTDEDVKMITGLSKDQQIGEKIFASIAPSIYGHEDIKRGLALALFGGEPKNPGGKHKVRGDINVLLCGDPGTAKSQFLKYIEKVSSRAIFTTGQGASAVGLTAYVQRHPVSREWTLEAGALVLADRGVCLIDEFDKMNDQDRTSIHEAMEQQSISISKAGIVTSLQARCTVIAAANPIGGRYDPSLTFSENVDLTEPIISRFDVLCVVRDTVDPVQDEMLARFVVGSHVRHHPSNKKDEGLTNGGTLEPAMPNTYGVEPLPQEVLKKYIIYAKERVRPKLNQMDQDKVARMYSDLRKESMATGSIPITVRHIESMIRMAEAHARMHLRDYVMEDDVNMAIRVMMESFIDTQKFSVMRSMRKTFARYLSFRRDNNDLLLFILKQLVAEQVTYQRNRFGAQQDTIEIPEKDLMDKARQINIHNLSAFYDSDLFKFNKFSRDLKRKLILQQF
Sequence of Charged multivesicular body protein 3 (Mus musculus) (Q9CQ10 whole entry): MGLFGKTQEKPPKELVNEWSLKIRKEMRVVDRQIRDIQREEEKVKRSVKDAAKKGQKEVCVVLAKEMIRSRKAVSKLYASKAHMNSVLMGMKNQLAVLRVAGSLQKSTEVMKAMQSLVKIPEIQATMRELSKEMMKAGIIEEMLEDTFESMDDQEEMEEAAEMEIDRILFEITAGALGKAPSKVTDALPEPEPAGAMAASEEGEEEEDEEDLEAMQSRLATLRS
Sequence of La-related protein 1 (Mus musculus) (Q6ZQ58 whole entry, the tested form may be a part): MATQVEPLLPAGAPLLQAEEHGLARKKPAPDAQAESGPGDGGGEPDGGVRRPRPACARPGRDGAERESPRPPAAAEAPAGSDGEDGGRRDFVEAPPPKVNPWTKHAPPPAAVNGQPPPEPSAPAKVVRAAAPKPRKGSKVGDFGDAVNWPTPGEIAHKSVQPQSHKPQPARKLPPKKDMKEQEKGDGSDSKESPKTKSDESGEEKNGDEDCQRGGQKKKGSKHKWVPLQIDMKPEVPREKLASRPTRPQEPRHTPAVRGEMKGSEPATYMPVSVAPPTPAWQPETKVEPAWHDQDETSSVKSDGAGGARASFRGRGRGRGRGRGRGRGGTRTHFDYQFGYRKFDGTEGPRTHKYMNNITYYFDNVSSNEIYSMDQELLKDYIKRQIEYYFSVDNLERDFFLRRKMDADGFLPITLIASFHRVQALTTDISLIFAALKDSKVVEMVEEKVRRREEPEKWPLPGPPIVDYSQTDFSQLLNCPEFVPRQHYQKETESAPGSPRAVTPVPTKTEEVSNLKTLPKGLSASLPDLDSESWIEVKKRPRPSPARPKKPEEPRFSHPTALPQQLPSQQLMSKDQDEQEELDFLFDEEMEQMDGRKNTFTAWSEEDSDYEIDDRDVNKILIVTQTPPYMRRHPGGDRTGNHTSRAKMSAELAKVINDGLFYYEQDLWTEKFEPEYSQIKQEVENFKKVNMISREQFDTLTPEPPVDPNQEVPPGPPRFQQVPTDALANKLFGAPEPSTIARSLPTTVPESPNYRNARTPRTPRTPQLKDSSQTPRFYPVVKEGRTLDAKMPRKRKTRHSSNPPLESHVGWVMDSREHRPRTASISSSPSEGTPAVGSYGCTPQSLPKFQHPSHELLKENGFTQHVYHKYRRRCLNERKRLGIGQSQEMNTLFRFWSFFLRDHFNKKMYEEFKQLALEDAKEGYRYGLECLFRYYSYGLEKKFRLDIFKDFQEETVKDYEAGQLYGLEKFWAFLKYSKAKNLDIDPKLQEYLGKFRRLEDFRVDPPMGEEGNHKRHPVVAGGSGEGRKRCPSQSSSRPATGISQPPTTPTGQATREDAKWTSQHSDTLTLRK
Sequence of Coiled-coil domain-containing protein 43 (Mus musculus) (Q9CR29 whole entry, the tested form may be a part): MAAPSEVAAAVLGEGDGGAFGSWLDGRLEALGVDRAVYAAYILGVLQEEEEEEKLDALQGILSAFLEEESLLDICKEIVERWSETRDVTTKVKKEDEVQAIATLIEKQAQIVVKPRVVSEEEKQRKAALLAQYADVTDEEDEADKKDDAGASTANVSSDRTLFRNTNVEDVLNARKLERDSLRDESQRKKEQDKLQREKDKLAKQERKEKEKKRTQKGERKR
Sequence of Autophagy-related protein 9A (Mus musculus) (Q68FE2 whole entry): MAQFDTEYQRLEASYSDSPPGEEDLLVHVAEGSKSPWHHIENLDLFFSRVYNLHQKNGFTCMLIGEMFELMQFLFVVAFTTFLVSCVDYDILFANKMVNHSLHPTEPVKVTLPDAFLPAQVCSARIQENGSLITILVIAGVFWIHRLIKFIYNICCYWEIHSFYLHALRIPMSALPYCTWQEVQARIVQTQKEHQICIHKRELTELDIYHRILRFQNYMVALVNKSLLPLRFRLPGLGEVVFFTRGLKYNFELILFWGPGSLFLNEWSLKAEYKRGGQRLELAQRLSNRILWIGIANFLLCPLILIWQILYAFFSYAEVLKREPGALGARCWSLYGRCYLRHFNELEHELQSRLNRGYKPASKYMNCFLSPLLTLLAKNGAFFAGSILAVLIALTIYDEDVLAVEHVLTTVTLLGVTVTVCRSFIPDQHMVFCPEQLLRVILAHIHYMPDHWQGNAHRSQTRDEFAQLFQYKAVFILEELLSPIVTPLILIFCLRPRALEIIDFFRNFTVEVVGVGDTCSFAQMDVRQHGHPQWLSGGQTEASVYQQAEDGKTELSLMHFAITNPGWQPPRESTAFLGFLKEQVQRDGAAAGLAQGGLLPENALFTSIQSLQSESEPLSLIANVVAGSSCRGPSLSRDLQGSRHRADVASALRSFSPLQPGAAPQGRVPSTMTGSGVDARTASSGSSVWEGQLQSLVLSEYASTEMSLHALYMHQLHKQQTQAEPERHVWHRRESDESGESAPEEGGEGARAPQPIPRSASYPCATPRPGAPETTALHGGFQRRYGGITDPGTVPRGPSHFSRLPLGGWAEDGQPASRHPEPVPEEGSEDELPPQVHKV
Sequence of WD repeat and HMG-box DNA-binding protein 1 (Mus musculus) (P59328 whole entry): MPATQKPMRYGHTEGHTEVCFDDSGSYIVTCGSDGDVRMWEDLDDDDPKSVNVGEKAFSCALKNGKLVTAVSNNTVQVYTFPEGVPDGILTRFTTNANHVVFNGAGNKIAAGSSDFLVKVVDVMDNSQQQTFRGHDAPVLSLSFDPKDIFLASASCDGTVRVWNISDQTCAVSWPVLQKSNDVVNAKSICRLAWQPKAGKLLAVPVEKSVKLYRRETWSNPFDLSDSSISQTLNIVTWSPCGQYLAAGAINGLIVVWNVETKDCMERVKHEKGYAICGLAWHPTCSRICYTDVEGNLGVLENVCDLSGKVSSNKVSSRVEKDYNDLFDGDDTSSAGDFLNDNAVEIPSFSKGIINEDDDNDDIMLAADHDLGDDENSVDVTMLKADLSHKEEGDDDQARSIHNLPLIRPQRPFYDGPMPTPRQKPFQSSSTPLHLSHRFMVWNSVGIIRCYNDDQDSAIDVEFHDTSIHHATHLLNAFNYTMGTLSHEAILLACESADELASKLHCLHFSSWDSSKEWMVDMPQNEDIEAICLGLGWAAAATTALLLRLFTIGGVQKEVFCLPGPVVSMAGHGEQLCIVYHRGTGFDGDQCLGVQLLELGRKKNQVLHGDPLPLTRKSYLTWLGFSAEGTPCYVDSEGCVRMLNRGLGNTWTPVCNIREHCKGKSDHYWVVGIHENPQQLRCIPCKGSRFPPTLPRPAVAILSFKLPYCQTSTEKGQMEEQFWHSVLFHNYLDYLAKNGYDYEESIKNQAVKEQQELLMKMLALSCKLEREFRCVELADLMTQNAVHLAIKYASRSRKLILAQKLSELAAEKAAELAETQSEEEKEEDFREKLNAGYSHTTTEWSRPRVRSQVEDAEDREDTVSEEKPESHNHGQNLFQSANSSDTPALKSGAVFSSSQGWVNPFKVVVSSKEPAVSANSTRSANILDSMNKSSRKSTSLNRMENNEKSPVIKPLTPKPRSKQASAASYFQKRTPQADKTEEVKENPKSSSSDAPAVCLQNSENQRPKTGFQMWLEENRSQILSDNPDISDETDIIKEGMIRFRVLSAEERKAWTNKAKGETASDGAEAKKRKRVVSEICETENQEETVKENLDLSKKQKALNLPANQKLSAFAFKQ
Sequence of UPF0690 protein C1orf52 homolog (Mus musculus) (Q9CWU4 whole entry): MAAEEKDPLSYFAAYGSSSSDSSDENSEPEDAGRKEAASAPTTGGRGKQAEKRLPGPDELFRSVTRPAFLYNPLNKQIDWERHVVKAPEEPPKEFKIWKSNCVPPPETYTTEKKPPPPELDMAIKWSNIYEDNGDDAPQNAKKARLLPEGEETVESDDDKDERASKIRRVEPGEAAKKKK

fold change (FC) [1]: 1.55
fold change (FC) [2]: 1.61
fold change (FC) [3]: 1.66
fold change (FC) [4]: 1.8
fold change (FC) [5]: 2.12
fold change (FC) [6]: 2.68
fold change (FC) [7]: 3.19
fold change (FC) [8]: 3.22
fold change (FC) [9]: 3.25
fold change (FC) [10]: 3.3
Compound: COc1cc(/C=N/n2c(SC)nnc2-c2ccccc2)c(Br)cc1O
